Patent US12589130B2, “Aloe extracts for microbial neutralisation” (2QR RESEARCH B.V., priority 2020, dated 2026)

System: Staphylococcus aureus
Assay: Aggregation of fluorescently labelled microorganisms, MAC (Example 1)
Format: cell-based
Procedure: Microbial cells were fluorescently labelled with fluorescein isothiocyanate (FITC, Sigma-Aldrich, St Louis, MO, USA) or SYTO™ 24 green fluorescent nucleic acid stain (Thermo Fisher, Rockford, IL, USA). FITC labelling was performed by incubation in a 0.2 M NaHCO3 pH 9.5 buffer with a final concentration of 0.2 mg/ml FITC (from a 2 mg/ml FITC stock in DMSO) and shaking for 1 hour at 37° C. and subsequently extensively washing with phosphate buffered saline (PBS). SYTO-24 labelling was performed in PBS using a final 1 μM concentration of the dye for at least 30 minutes and subsequently washing with PBS. […] Aggregation was examined immediately or at a more convenient moment using a fluorescence microscope. […]
The Minimal Aggregation Concentration (MAC), the lowest concentration of polysaccharides still convincingly showing microbial aggregation, was determined by 2-fold serial dilutions and expressed in mg or microgram polysaccharides/ml. […] Quantification of samples was based on dry weight determination unless otherwise indicated.
10× concentrated Aloe vera leaf juice, a 10× decolorized liquid made from purified inner leaf fillet that contained not less than 10% polysaccharides, was purchased at a commercial supplier (ACTIValoe® Aloe vera Gel 10X-D, AloeCorp, Harlingen, TX, USA). […] The Minimal Aggregation Concentration (MAC) of the >12 kDa fraction was determined and compared to that of D-mannose.

O=C[C@@H](O)[C@@H](O)[C@H](O)[C@H](O)CO [D-mannose]
MAC (Minimal Aggregation Concentration towards Staphylococcus aureus, mg polysaccharides/ml): >16 mg/mL
aggregating activity (highest concentration tested (16 mg/ml)): did not have aggregating activity
